31 compounds from US20100003246A1, “Novel heterocyclic compounds and uses therof” (priority 2008, published 2010) can be followed below.

This assay deals with T1, b-Raf(V600E) (Homo sapiens, UniProt P15056, V600E).
T1 construct: made in house
T1 sequence (P15056 whole entry V600E): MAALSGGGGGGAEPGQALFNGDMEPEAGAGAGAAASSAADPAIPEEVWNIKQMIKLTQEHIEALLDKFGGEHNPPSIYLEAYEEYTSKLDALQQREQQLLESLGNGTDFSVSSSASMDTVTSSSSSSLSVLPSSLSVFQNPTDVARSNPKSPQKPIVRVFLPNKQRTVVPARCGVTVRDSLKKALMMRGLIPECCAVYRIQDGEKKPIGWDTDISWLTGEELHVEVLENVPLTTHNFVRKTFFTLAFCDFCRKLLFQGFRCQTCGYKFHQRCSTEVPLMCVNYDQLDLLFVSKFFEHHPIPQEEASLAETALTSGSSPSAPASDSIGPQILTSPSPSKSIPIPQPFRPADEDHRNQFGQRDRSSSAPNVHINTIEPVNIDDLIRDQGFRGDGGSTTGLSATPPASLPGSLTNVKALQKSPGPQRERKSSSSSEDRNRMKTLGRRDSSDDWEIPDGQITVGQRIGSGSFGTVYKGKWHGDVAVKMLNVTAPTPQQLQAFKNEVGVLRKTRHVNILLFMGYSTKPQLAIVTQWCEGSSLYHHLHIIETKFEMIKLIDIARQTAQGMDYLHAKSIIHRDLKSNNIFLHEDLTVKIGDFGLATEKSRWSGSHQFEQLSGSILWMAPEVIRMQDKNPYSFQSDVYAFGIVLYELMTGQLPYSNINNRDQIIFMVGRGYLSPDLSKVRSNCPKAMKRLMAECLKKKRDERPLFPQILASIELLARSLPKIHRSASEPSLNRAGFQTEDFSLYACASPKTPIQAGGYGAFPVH
Nature of the assay: Raf/Mek Amplified Luminescence Proximity Homogeneous Assay (Alpha Screen), b-Raf(V600E). It is filed as biochemical. Conditions: mutant b-Raf(V600E), read-out: mut-b-RAF (IC50 in uM). Summed up: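 IC50 derived by non-linear regression from AlphaScreen luminescence of phospho-MEK (anti-p-MEK antibody). Reaction: ~4 pM b-Raf(V600E), ~10 nM kinase-dead biotinylated Mek, 60 min compound pre-incubation, then 3 h with ATP at room temperature in pH 7.5 Tris/MgCl2/DTT buffer, quenched with EDTA.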
Consider `COc1nc(-c2nc(C(C)(C)C)[nH]c2-c2ccnc(NC[C@H](C)NC(=O)OCC(C)(C)C)n2)cnc1N` [Compound 238, (S)-neopentyl 1-(4-(4-(5-amino-6-methoxypyrazin-2-yl)-2-tert-butyl-1H-imidazol-5-yl)pyrimidin-2-ylamino)propan-2-ylcarbamate], for which the IC50 came to 0.0001 µM. Consider `COc1cc(-c2nc(C(C)(C)C)[nH]c2-c2ccnc(NC[C@H](C)NC(=O)C(F)(F)F)n2)cnc1N` [Compound 206, (S)-N-(1-(4-(4-(6-amino-5-methoxypyridin-3-yl)-2-tert-butyl-1H-imidazol-5-yl)pyrimidin-2-ylamino)propan-2-yl)-2,2,2-trifluoroacetamide], for which the IC50 stood at 0.0003 µM. `COc1cc(-c2[nH]c(-c3ccccc3)nc2-c2ccnc(N[C@@H]3CCCN(S(=O)(=O)C4CC4)C3)n2)cnc1N` [Compound 91, (R)-4-(5-(6-amino-5-methoxypyridin-3-yl)-2-phenyl-1H-imidazol-4-yl)-N-(1-(cyclopropylsulfonyl)piper-idin-3-yl)pyrimidin-2-amine]: the IC50 worked out at 0.0044 µM. For the compound `COC(=O)N[C@@H](C)CNc1nccc(-c2[nH]c(C(C)(C)C)nc2-c2nc(OC)c(N)nc2C)n1` [Compound 260, (S)-methyl 1-(4-(4-(5-amino-6-methoxy-3-methylpyrazin-2-yl)-2-tert-butyl-1H-imidazol-5-yl)pyrimidin-2-ylamino)propan-2-ylcarbamate], the IC50 amounted to 0.001 µM. Turning to `COc1cc(-c2[nH]c(-c3ccc(F)cc3)nc2-c2ccnc(N[C@H]3CCN(S(C)(=O)=O)C3)n2)cnc1N` [Compound 200, (S)-4-(5-(6-amino-5-methoxypyridin-3-yl)-2-(4-fluorophenyl)-1H-imidazol-4-yl)-N-(1-(methylsulfonyl)pyrrolidin-3-yl)pyrimidin-2-amine], the IC50 was determined as 0.004 µM.

On to `COc1cc(-c2nc(-c3ccccc3)[nH]c2-c2ccnc(NC3CC3)n2)cnc1N` [Compound 72, 4-(4-(6-amino-5-methoxypyridin-3-yl)-2-phenyl-1H-imidazol-5-yl)-N-cyclopropylpyrimidin-2-amine], for which the IC50 amounted to 0.0016 µM. The figure for `COCC(=O)N[C@@H](C)CNc1nccc(-c2[nH]c(-c3ccc(F)cc3)nc2-c2cnc(N)c(OC)n2)n1` [Example 5, (S)—N-(1-(4-(4-(5-amino-6-methoxylpyrazin-2-yl)-2-(4-fluorophenyl)-1H-imidazol-5-yl)pyrimidin-2-ylamino)propan-2-yl)-2-methoxyacetamide] is 0.0002 µM; for `COc1cc(-c2nc(-c3ccccc3)[nH]c2-c2ccnc(NC(C)=O)c2)cnc1N` [Compound 82, N-(4-(4-(6-amino-5-methoxypyridin-3-yl)-2-phenyl-1H-imidazol-5-yl)pyridin-2-yl)acetamide] it is 0.002 µM; for `COCC(=O)N[C@@H](C)CNc1nccc(-c2[nH]c(-c3ccc(F)cc3)nc2-c2nc(OC)c(N)nc2C)n1` [Compound 252, (S)-N-(1-(4-(4-(5-amino-6-methoxy-3-methylpyrazin-2-yl)-2-(4-fluorophenyl)-1H-imidazol-5-yl)pyrimidin-2-ylamino)propan-2-yl)-2-methoxyacetamide] it is 0.0024 µM. To `COc1cc(-c2[nH]c(-c3ccccc3Cl)nc2-c2ccncc2)cnc1N` [Compound 135, 5-(2-(2-chlorophenyl)-4-(pyridin-4-yl)-1H-imidazol-5-yl)-3-methoxypyridin-2-amine] belongs 0.0004 µM; to `c1ccc(-c2nc(-c3ccncc3)c(-c3cnc4[nH]ccc4c3)[nH]2)cc1` [Compound 45, 5-(2-phenyl-4-(pyridin-4-yl)-1H-imidazol-5-yl)-1H-pyrrolo[2,3-b]pyridine], 0.0046 µM; to `Oc1ccc(-c2[nH]c(-c3ccccc3)nc2-c2ccncc2)cn1` [Compound 44, 5-(2-phenyl-4-(pyridin-4-yl)-1H-imidazol-5-yl)pyridin-2-ol], 0.465 µM. `COCC(=O)N[C@@H](C)CNc1nccc(-c2[nH]c(C3CC3)nc2-c2cnc(N)c(OC)n2)n1` [Compound 250, (S)-N-(1-(4-(4-(5-amino-6-methoxypyrazin-2-yl)-2-cyclopropyl-1H-imidazol-5-yl)pyrimidin-2-ylamino)propan-2-yl)-2-methoxyacetamide]: the IC50 is 0.0001 µM.

`COc1cc(-c2nc(-c3ccc(F)cc3)[nH]c2-c2ccnc(NC(C)C)n2)cnc1N` [Compound 158, 4-(4-(6-amino-5-methoxypyridin-3-yl)-2-(4-fluorophenyl)-1H-imidazol-5-yl)-N-isopropylpyrimidin-2-amine]: the IC50 amounted to 0.0051 µM. Take `Fc1ccc(-c2nc(-c3ccncc3)c(-c3cnc4[nH]cc(Br)c4c3)[nH]2)cc1` [Compound 151, 3-bromo-5-(2-(4-fluorophenyl)-4-(pyridin-4-yl)-1H-imidazol-5-yl)-1H-pyrrolo[2,3-b]pyridine]: the IC50 was determined as 0.0007 µM. On to `FC(F)(F)c1ccc(-c2nc(-c3ccncc3)c(-c3ccncc3)[nH]2)cc1` [Compound 84, 4,4′-(2-(4-(trifluoromethyl)phenyl)-1H-imidazole-4,5-diyl)dipyridine], for which the IC50 was found to be 0.229 µM. For the compound `COc1cc(-c2nc(C(C)(C)C)[nH]c2-c2ccnc(Nc3ccc(N4C[C@@H](C)O[C@@H](C)C4)nc3)n2)cnc1N` [Compound 184, 4-(4-(6-amino-5-methoxypyridin-3-yl)-2-tert-butyl-1H-imidazol-5-yl)-N-(6-((2R,6S)-2,6-dimethylmorpholino)-pyridin-3-yl)pyrimidin-2-amine], the IC50 worked out at 0.0003 µM. On to `COc1cc(Nc2nccc(-c3[nH]c(C(C)(C)C)nc3-c3cnc4[nH]cc(Cl)c4c3)n2)ccn1` [Compound 233, 4-(2-tert-butyl-4-(3-chloro-1H-pyrrolo[2,3-b]pyridin-5-yl)-1H-imidazol-5-yl)-N-(2-methoxypyridin-4-yl)pyrimidin-2-amine], for which the IC50 was 0.0003 µM. `COc1cc(-c2[nH]c(-c3cccc(C)c3)nc2-c2ccncc2)cnc1N` [Compound 110, 3-methoxy-5-(4-(pyridin-4-yl)-2-tolyl-1H-imidazol-5-yl)pyridin-2-amine]: the IC50 is 0.0005 µM.

As for `COC(=O)c1ccc(-c2nc(-c3ccncc3)c(-c3cnc(N)c(OC)c3)[nH]2)cc1` [Compound 103, methyl 4-(5-(6-amino-5-methoxypyridin-3-yl)-4-(pyridin-4-yl)-1H-imidazol-2-yl)benzoate], the IC50 came to 0.0007 µM. As for `COc1cc(-c2[nH]c(-c3cc(C)ccc3F)nc2-c2ccncc2)cnc1N` [Compound 139, 5-(2-(2-fluoro-5-methylphenyl)-4-(pyridin-4-yl)-1H-imidazol-5-yl)-3-methoxypyridin-2-amine], the IC50 was 0.0012 µM. The figure for `COc1cc(-c2[nH]c(-c3ccc(F)cc3)nc2-c2ccnc(NC3CCN(S(=O)(=O)C4CC4)CC3)n2)cnc1N` [Compound 95, 4-(5-(6-amino-5-methoxypyridin-3-yl)-2-(4-fluorophenyl)-1H-imidazol-4-yl)-N-(1-(cyclopropylsulfonyl)piper-idin-4-yl)pyrimidin-2-amine] is 0.0025 µM; for `COc1nc(-c2nc(C(C)(C)C)[nH]c2-c2ccnc(NC[C@H](C)NC(=O)OC(C)C)n2)c(C)nc1N` [Compound 257, (S)-isopropyl 1-(4-(4-(5-amino-6-methoxy-3-methylpyrazin-2-yl)-2-tert-butyl-1H-imidazol-5-yl)pyrimidin-2-ylamino)propan-2-ylcarbamate] it is 0.0012 µM. With `COc1cc(-c2[nH]c(C(C)(C)C)nc2-c2ccnc(N[C@@H](C)CNC(=O)[C@H](C)OC)n2)cnc1N` [Compound 207, (S)-N-((S)-2-(4-(5-(6-amino-5-methoxypyridin-3-yl)-2-tert-butyl-1H-imidazol-4-yl)pyrimidin-2-ylamino)propyl)-2-methoxypropanamide], the IC50 is 0.0158 µM. For `CCc1nc(-c2cnc(N)c(OC)c2)c(-c2ccnc(Nc3ccnc(OC)c3)n2)[nH]1` [Compound 243, 4-(4-(6-amino-5-methoxypyridin-3-yl)-2-ethyl-1H-imidazol-5-yl)-N-(2-methoxypyridin-4-yl)pyrimidin-2-amine], the IC50 was found to be 0.0004 µM. The figure for `COc1cc(-c2[nH]c(-c3ccc4[nH]ccc4c3)nc2-c2ccncc2)cnc1N` [Compound 178, 5-(2-(1H-indol-5-yl)-4-(pyridin-4-yl)-1H-imidazol-5-yl)-3-methoxypyridin-2-amine] is 0.0009 µM; for `COc1cc(-c2nc(-c3ccc(F)cc3)[nH]c2-c2ccnc(C#N)c2)cnc1N` [Compound 173, 4-(4-(6-amino-5-methoxypyridin-3-yl)-2-(4-fluorophenyl)-1H-imidazol-5-yl)picolinonitrile] it is 0.197 µM; for `COc1cc(-c2[nH]c(-c3ccc(C#N)cc3)nc2-c2ccncc2)cnc1N` [Compound 104, 4-(5-(6-amino-5-methoxypyridin-3-yl)-4-(pyridin-4-yl)-1H-imidazol-2-yl)benzonitrile] it is 0.0014 µM. On to `Nc1n[nH]c2ccc(-c3[nH]c(-c4ccccc4)nc3-c3ccncc3)cc12` [Compound 26, 5-(2-phenyl-4-(pyridin-4-yl)-1H-imidazol-5-yl)-1H-indazol-3-amine], for which the IC50 worked out at 0.173 µM.

As to `COc1cc(-c2nc(-c3ccc(F)cc3)[nH]c2-c2ccnc(NC[C@H](C)NC(=O)[C@H](C)OC)n2)cnc1N` [Compound 197, (S)-N-((S)-1-(4-(4-(6-amino-5-methoxypyridin-3-yl)-2-(4-fluorophenyl)-1H-imidazol-5-yl)pyrimidin-2-ylamino)propan-2-yl)-2-methoxypropanamide], the IC50 is 0.0001 µM. As for `COc1cc(-c2[nH]c(-c3ccccc3)nc2-c2ccnc(NCCNC(C)=O)n2)cnc1N` [Compound 67, N-(2-(4-(5-(6-amino-5-methoxypyridin-3-yl)-2-phenyl-1H-imidazol-4-yl)pyrimidin-2-ylamino)ethyl)acetamide], the IC50 stood at 0.0001 µM.
